Laboratory results reported in ChEMBL document CHEMBL2016539 (Bioorg Med Chem Lett, 2012).
pIC50: −log10 of the molar value.

Legend:
[1] = Immunosuppressive activity in C57BL/6 mouse T lymphocytes assessed as inhibition of cell proliferation after 72 hrs by MTT assay; type: functional, cell-based; conditions: C57BL/6, T-cell
[2] = target: Inosine-5'-monophosphate dehydrogenase 2 (Homo sapiens, UniProt P12268); assay: Inhibition of IMPDH2 using inosine 5'-monophosphate as substrate by spectrophotometry

| pIC50 [2] | SMILES | pIC50 [1] |
| --- | --- | --- |
| 5.75 | COc1c(C)c2c(c(O)c1C/C=C(\C)[C@@H](O)CC(=O)O)C(=O)OC2 | 5.96 |
| 5.19 | COc1c(C)c2c(c(O)c1C/C=C(\C)[C@H](CC(=O)O)O[C@H]1O[C@H](CO)[C@@H](O)[C@H](O)[C@H]1O)C(=O)OC2 [PENICACID B] | < 4.70 |
| 4.14 | COc1c(C)c2c(c(O)c1CC(O)C(C)(O)C(O)CC(=O)O)C(=O)OC2 (centres undefined) [PENICACID C] | < 4.52 |
| – | COc1c(C)c2c(c(O)c1C/C=C(\C)CCC(=O)O)C(=O)OC2 [MYCOPHENOLIC ACID] | 6.49 |
| 4.54 | COc1c(C)c2c(c(OC)c1C/C=C(\C)[C@@H](O)CC(=O)O)C(=O)OC2 [PENICACID A] | 5.61 |
